# According to US20140017187A1, “Use of 5-(7-methoxy-3,3-dimethyl-2,3-dihydro-1-benzoxepin-5-yl)-3-methyl-penta-2,4-dienoic acid as a cosmetic” (Merck Patent GmbH, priority 2008, published 2014):
# “And” between values parts separate entries of the source, which are not always exact repeats. Equal entries are not always repeated.
# Columns and labels:
# PPARγ = PPARγ luciferase reporter gene activation in CV1 cells expressing endogenous PPARγ; format: cell-based, green monkey; conditions: for Fold Activation PPAR gamma, MEAN: mean of the two experiments in triplicate; for Fold Activation PPAR gamma: single values of triplicates, two experiments, relative to control
# Excerpt: Analysis of the activation of PPARα and PPARγ is based on the transfection of a DNA allowing the expression of a reporter gene (the gene of luciferase) under the control of the PPARs, either endogenous in the case of PPARγ or cotransfected in the case of PPARα. The reporter plasmid J3TkLuc comprises three copies of the response element for PPARs of the human apo A-II gene (Staels, B et al. (1995), J. Clin. Invest., 95, 705-712) which are cloned upstream of the promoter of the thymidine kinase gene of the herpes simplex virus in the plasmid pGL3. This reporter gene was obtained by subcloning, in the plasmid pGL3, the plasmid J3TkCAT described above (Fajas, L et al. (1997), J. Biol. Chem., 272, 18779-18789). […] These cells were inoculated at a density of 20,000 cells per well (96-well plates) and transfected with 150 ng of reporter DNA complexed with a mixture of lipids. In the case of the SK-Hep1 cells, an expression vector for PPARα, described by Sher, T. et al. (1993), Biochemistry, 32, 5598-5604, is cotransfected. After 5 hours, the cells are washed twice and incubated for 36 hours in the presence of the test compound in a fresh culture medium comprising 10% foetal calf serum. At the end of incubation, the cells are lysed and the luciferase activity is measured.
# human skin model = assay: cDNA microarray gene expression profiling (Affymetrix) of treated skin equivalents, GeneGO MetaCore analysis; format: cell-based
# Experimental: One of the advantages of cDNA microarray is the possibility to observe the expression pattern of the whole genes and compare with different conditions. This is the first study to determine the gene expression profiles of Compound-treated human skin. For the analysis of deregulated gene expression induced by substance Compound, treated and control samples from a human skin model were analyzed with Affymetrix oligonucleotide microarrays. Skin has been among the first organs analysed using DNA-Microarrays. In addition, epidermal keratinocytes have been the target of many studies because they respond to a rich variety of inflammatory and immunmodulating cytokines, hormones, vitamins, ultraviolet (UV) light, toxins and physical injury. Altered gene expression after applying substance Compound was analysed with an Affymetrix system.
# For gene expression studies skin equivalents were treated with 50 μL of 2 relevant substance Compound with a concentration of c=50 μM in PBS-buffer/DMSO. Buffer-treated skin equivalents served as controls.
# A ratio (log 2) value of zero indicates no regulation, whereas positive (log 2) values indicate an upregulation and negative (log 2) values a downregulation of the relevant gene.
# The experiment contains 759 genes with the specified threshold (Appendix A)
# GeneGO's Metacore (Pathways and Maps) Software.
# Enrichment analysis consists of matching gene IDs for the common, similar and unique sets of the uploaded files with gene IDs in functional ontologies in MetaCore. The ontologies include canonical pathway maps, GeneGo cellular processes, GO cellular processes and diseases categories. The degree of “relevance” to different categories for the uploaded datasets is defined by p-values, so that the lower p-value gets higher priority.
# [1] = cDNA microarray, skin equivalents, 50 μM
compound,measurement,setting,value
"COc1ccc2c(c1)C(/C=C/C(C)=C/C(=O)O)=CC(C)(C)CO2 [Compound, 5-(7-methoxy-3,3-dimethyl-2,3-dihydro-1-benzoxepin-5-yl)-3-methyl-penta-2,4-dienoic acid]","Fold Activation PPAR gamma, MEAN",PPARγ; 0.3 μm,0.9 fold
same,"Fold Activation PPAR gamma, MEAN",PPARγ; 1 μm,1.0 fold
same,Fold Activation PPAR gamma,PPARγ; 1 μm,0.8 fold and 1.2 fold and 0.9 fold and 1.0 fold and 1.3 fold
same,"Fold Activation PPAR gamma, MEAN",PPARγ; 3 μm,1.5 fold
same,Fold Activation PPAR gamma,PPARγ; 3 μm,1.2 fold and 1.6 fold and 1.3 fold and 2.1 fold
same,"Fold Activation PPAR gamma, MEAN",PPARγ; 10 μm,5.2 fold
same,"Fold Activation PPAR gamma, MEAN",PPARγ; 30 μm,14.4 fold
same,"Fold Activation PPAR gamma, MEAN",PPARγ; 50 μm,17.6 fold
same,"Fold Activation PPAR gamma, MEAN",PPARγ; 100 μm,15.2 fold
same,"Ratio as Log2 value, gene CASP14","human skin model; Caspase 14 precursor, skin equivalents, 50 μM, vs buffer-treated control",1.44 Log2
same,"Ratio as Log2 value, gene UGCG","human skin model; Ceramide glucosyltransferase, skin equivalents, 50 μM, vs buffer-treated control",0.7977 Log2
same,"Ratio as Log2 value, gene CDSN","human skin model; Corneodesmosin precursor, skin equivalents, 50 μM, vs buffer-treated control",1.207 Log2
same,"Ratio as Log2 value, gene ELF3","human skin model; ETS-related transcription factor Elf-3, skin equivalents, 50 μM, vs buffer-treated control",−1.46 Log2
same,"Ratio as Log2 value, gene EMP1","human skin model; Epithelial membrane protein 1, skin equivalents, 50 μM, vs buffer-treated control",1.278 Log2
same,"Ratio as Log2 value, gene KRT34","human skin model; Keratin, type I cuticular Ha4, skin equivalents, 50 μM, vs buffer-treated control",1.695 Log2
same,"Ratio as Log2 value, gene KRT10","human skin model; Keratin, type I cytoskeletal 10, skin equivalents, 50 μM, vs buffer-treated control",−0.6644 Log2
same,"Ratio as Log2 value, gene KRT13","human skin model; Keratin, type I cytoskeletal 13, skin equivalents, 50 μM, vs buffer-treated control",−0.8963 Log2
same,"Ratio as Log2 value, gene LAMA3","human skin model; Laminin subunit alpha-3 precursor, skin equivalents, 50 μM, vs buffer-treated control",0.6648 Log2
same,"Ratio as Log2 value, gene LAMB3","human skin model; Laminin subunit beta-3 precursor, skin equivalents, 50 μM, vs buffer-treated control",1.168 Log2
same,"Ratio as Log2 value, gene LCE2B","human skin model; Late cornified envelope protein 2B, skin equivalents, 50 μM, vs buffer-treated control",1.326 Log2
same,"Ratio as Log2 value, gene PTHLH","human skin model; Parathyroid hormone-related protein, skin equivalents, 50 μM, vs buffer-treated control",−0.7916 Log2
same,"Ratio as Log2 value, gene S100a7","human skin model; Protein S100-A7, skin equivalents, 50 μM, vs buffer-treated control",−0.6784 Log2
same,"Ratio as Log2 value, gene OVOL1","human skin model; Putative transcription factor Ovo-like 1, skin equivalents, 50 μM, vs buffer-treated control",1.064 Log2
same,expression of FABP4 and Leptin,human skin model; cDNA microarray data,significantly upregulated
same,"expression of Caspase 14, P57/KIP2",human skin model; [1],significantly upregulated
same,"expression of Fibronectin, Elastin and Laminin",human skin model; [1],upregulated significantly
same,expression of HAS2 gene (hyaluronan synthase 2),human skin model; [1],upregulated
same,"expression of IL-6, TNF-alpha induced proteins, IL-8, CCL8, CCL2, CXCL2, CXCL12, CXCL3, CXCL5 and ICAM-1",human skin model; [1],significantly downregulated
same,"expression of MMP genes MMP9, MMP14, MMP11",human skin model; [1],down regulated
same,expression of RXRA (retinoid X receptors A),human skin model; [1],upregulation
same,"expression of S100A7, S100A7A and S100A12",human skin model; [1],downregulated
same,"expression of SCARB, INSIG2, ATP binding cassette and VLDLR genes",human skin model; [1],upregulation
same,"Compound vs. Control, ratio Log(2) value","human skin model; gene ABCG1 (ABCG1_HUMAN, ATP-binding cassette sub-family G member 1)",1.297 Log(2)
same,"Compound vs. Control, ratio Log(2) value","human skin model; gene CASP14 (CASPE_HUMAN, Caspase-14 precursor)",1.44 Log(2)
same,"Compound vs. Control, ratio Log(2) value","human skin model; gene CCL2 (CCL2_HUMAN, C-C motif chemokine 2 precursor)",−1.731 Log(2)
same,"Compound vs. Control, ratio Log(2) value","human skin model; gene CCL8 (CCL8_HUMAN, C-C motif chemokine 8 precursor)",−2.505 Log(2)
same,"Compound vs. Control, ratio Log(2) value","human skin model; gene CDKN1C (CDN1C_HUMAN, Cyclin-dependent kinase inhibitor 1C)",0.8737 Log(2)
same,"Compound vs. Control, ratio Log(2) value","human skin model; gene CERK (CERK1_HUMAN, Ceramide kinase)",0.729 Log(2)
same,"Compound vs. Control, ratio Log(2) value","human skin model; gene CLDN17 (CLD17_HUMAN, Claudin-17)",2.19 Log(2)
same,"Compound vs. Control, ratio Log(2) value","human skin model; gene COL4A3BP (C43BP_HUMAN, Collagen type IV alpha-3-binding protein)",1.233 Log(2)
same,"Compound vs. Control, ratio Log(2) value","human skin model; gene CXCL2 (MIP2A_HUMAN, Macrophage inflammatory protein 2-alpha precursor)",−1.267 Log(2)
same,"Compound vs. Control, ratio Log(2) value","human skin model; gene CXCL3 (MIP2B_HUMAN, Macrophage inflammatory protein 2-beta precursor)",−0.723 Log(2)
